Reference: US20200306254A1, “COMBINATION OF ERK1/2 INHIBITOR COMPOUND WITH GEMCITABINE OR WITH GEMCITABINE AND NAB-PACLITAXEL FOR USE IN TREATMENT OF PANCREATIC CANCER” (Eli Lilly and Company, priority 2016, published 2020)
Like-named read-outs stand apart in the source and are kept apart here.

Tests used:
[1] = test system: KRAS mutant (G12V) Capan-2 pancreatic cancer xenograft; assay type: in vivo; conditions: for Delta T/C % or % Regression: Day 34, Compound A 50 mg/kg QD PO, gemcitabine 100 mg/kg once weekly IP; for Difference (Treatment 1 − Treatment 2), tumor growth: Treatment 1 = Vehicle QD x 28 PO, log10 tumor volume, Compound A 50 mpk QD x 28 PO, Gemcitabine 100 mpk Q7D x 4 IP; for inhibition of tumor growth: single agents vs vehicle control group, combination vs each single agent alone
Experimental: Human pancreatic cancer cell line Capan-2 (ATCC cat # HTB-80) are cultured in DMEM supplemented with 10% fetal bovine serum, sodium pyruvate, nonessential amino acids, L-glutamine, and penicillin-streptomycin (Invitrogen, Carlsbad, Calif.). All cultures are maintained in a humidified incubator at 37° C. under 5% CO2/95% air free off mycoplasma and pathogenic murine viruses. The cells are used for experiments at passages <7 after recovery from frozen stocks.
Female CB-17 SCID nude mice are ordered from Charles River Laboratories International, Inc. All animals are acclimated for one week before the use and are housed and maintained in specific pathogen-free conditions in accordance with the guidelines of the American Association for Laboratory Animal Care and all current regulations and standards of the U.S. Departments of Agriculture and of Health and Human Services and the NIH. The experiment protocol is approved by the Eli Lilly and Company Animal Care and Use Committee.
Logarithmically growing Capan-2 cells (5×10^6/200 μL, single-cell suspensions of over 95% viability in Hank's medium mixed with equal volume of Matrigel (Becton Dickinson & Co., San Jose, Calif.)) are subcutaneously injected into the flank of the mice. When the average tumor volume reaches about 200 to 300 mm^3 following tumor cell implantation, the animals are randomized into different groups (n=5). The animals are treated with vehicle control (1% HEC/0.25% TWEEN® 80/0.05% Antifoam, daily, orally), Compound A (50 mg/kg, QD, PO), gemcitabine (100 mg/kg, once weekly, intraperitoneal), and the combination for 4 weeks. Compound A was formulated in 1% HEC/0.25% TWEEN® 80/0.05% Anti foam and gemcitabine is formulated in phosphate buffered saline (lx). Tumor volume and body weight are measured twice weekly. Tumor volume is estimated by using the formula: v=l×w2×0.536 where l=larger of measured diameter and w=smaller of perpendicular diameter.
The statistical analysis of the tumor volume data begins with a data transformation to a log scale to equalize variance across time and treatment groups. The log volume data are analyzed with a two-way repeated measures analysis of variance by time and treatment using the MIXED procedures in SAS software (Version 9.3). The correlation model for the repeated measures is Spatial Power. Treated groups are compared to the control group at each time point. The MIXED procedure is also used separately for each treatment group to calculate adjusted means and standard errors at each time point. Both analyses account for the autocorrelation within each animal and the loss of data that occurs when animals with large tumors are removed from the study early. The adjusted means and standard errors (s.e.) are plotted for each treatment group versus time. Analysis for tumor volume is based on log10 and spatial power covariance structure. P value is based on the comparison between two specific groups.
First, the usual repeated measures model is fit to log volume versus group and time. Then contrast statements are used to test for an interaction effect at each time point using the 2 specific treatments that are combined. This is equivalent to the Bliss Independence method and assumes that tumor volumes can, in theory, reach zero, i.e., complete regression. The expected additive response (EAR) for the combination is calculated on the tumor volume scale as: response (EAR) EAR volume=V1*V2/V0, where V0, V1, and V2 are the estimated mean tumor volumes for the vehicle control, treatment 1 alone, and treatment 2 alone, respectively. If the interaction test is significant, the combination effect is declared statistically more than additive or less than additive depending on the observed combination mean volume being less than or more than the EAR volume, respectively. Otherwise, the statistical conclusion is additive. In addition, a biologically relevant range of additivity can be defined as X % above and below the EAR volume. Typically, X would be 25 to 40%. […]

[2] = test system: human pancreatic cancer cells MIA PaCa2 xenograft; experiment: Xenograft Tumor Model (MIA PaCa2); assay type: in vivo, female athymic nude mice; conditions: for Delta T/C % or Regression %: oral gavage, 14 days
Experimental: The purpose of this assay is to measure reduction in tumor volume in response to test compound administration. Expand human pancreatic cancer cells MIA PaCa2 (ATCC, # CRL1420) in culture, harvest and inject 5×10e^6 cells in 200 μL of 1:1 HBSS+matrigel solution subcutaneously on the rear right flank of female athymic nude mice (22-25 g, Harlan Laboratories). Measure tumor growth and body weight twice per week beginning the seventh day after the implantation. When tumor sizes reach 200-400 mm^3, randomize animals and group into groups of eight to ten animals. Prepare test compound in an appropriate vehicle (vehicle: […]/0.25% TWEEN® 80/0.05% Antifoam) and administer by oral gavage daily for 14 days. Tumor response is determined by tumor volume measurement performed twice a week during the course of treatment. Body weight is taken as a general measure of toxicity.
Regression % is calculated when the endpoint volume is below baseline. The formula is 100*(T−T0)/T0. Where T0 is the mean baseline tumor volume for the treated group. Grand mean of all groups from baseline (randomization) at day 20 used to compute % change of T/C.

[3] = test system: ERK substrate (RSK) phosphorylation in HCT116 colorectal cancer cell line; experiment: ERK1/2 Cell Mechanistic Assay (pRSK1 Alphascreen Assay); assay type: cell-based; conditions: Homo sapiens, HCT-116, HCT116 cells, 2 h, n=8, read-out: IC50, ERK substrate (RSK) phosphorylation in tumor cells
Experimental: The purpose of this assay is to measure the ability of a compound to inhibit ERK signaling in cancer cells in vitro. Carry out the pRSK1 Alphascreen assay using the HCT116 colorectal cancer cell line (ATCC, # CCL-247). Routinely culture HCT116 cells in Dulbecco's Modified Eagle's Medium (DMEM) (Hyclone, # SH30022) growth medium containing 5%0/Fetal Bovine Serum (FBS) (Gibco, #16000-044) in T-150 flasks and incubate in a 5% CO2 incubator at 37° C. Harvest cells when they become confluent and freeze in freezing medium at 1×10e^7 cells/mL as “assay ready frozen cells” and store in liquid nitrogen. To run the assay, plate 40,000 HCT116 cells/well in a 96-well tissue culture plate and incubate at 37° C. in a 5% CO2 incubator overnight. Test compounds at 10 concentrations starting at a 20 μM top concentration and utilize a 1:3 dilution scheme (20 μM to 0.001 μM) with a final DMSO concentration of 0.5% (v/v). Add compounds in 20 μL serum free growth medium and incubate at 37° C. for two hours. Remove growth medium and add 50 μL of 1× lysis buffer [Cell Signaling Technology, #9803] containing 1× holt protease and […] inhibitor cocktail [Thermo, #78441] to each well and incubate at room temperature for 10 minutes on a shaker. […] Measure the fluorescence intensity in each well by reading the plates in ENVISION® (PerkinElmer) plate reader. […]

| Structure (SMILES) | Delta T/C % or % Regression [1] [%] | Difference (Treatment 1 − Treatment 2), tumor growth [1] | inhibition of tumor growth [1] | Delta T/C % or Regression % ([2]; MIA PaCa2 xenograft, 25 mg/kg QD) [%] | Delta T/C % or Regression % ([2]; MIA PaCa2 xenograft, 50 mg/kg QD) [%] | Delta T/C % or Regression % ([2]; MIA PaCa2 xenograft, 100 mg/kg QD) [%] | Delta T/C % or Regression % ([2]; MIA PaCa-2 xenograft, 12.5 mg/kg QD) [%] | anti-tumor activity ([2]; human pancreatic cancer xenograft model (MIA PaCa2)) | IC50 [3] [nM] | Delta T/C % or % Regression ([1]; listed as gemcitabine) [%] |
| --- | --- | --- | --- | --- | --- | --- | --- | --- | --- | --- |
| Cn1nccc1Nc1nccc(-c2cc3c(s2)C(C)(C)N(CCN2CCOCC2)C3=O)n1 [Compound A, 6,6-Dimethyl-2-{2-[(1-methyl-1H-pyrazol-5-yl)amino]pyrimidin-4-yl}-5-[2-(morpholin-4-yl)ethyl]-5,6-dihydro-4H-thieno[2,3-c]pyrrol-4-one] | 40 | 0.397 | partial inhibition of tumor growth | 2 | −22 | −66 | 32 | significant anti-tumor activity | 429 | – |
| Nc1ccn([C@@H]2O[C@H](CO)[C@@H](O)C2(F)F)c(=O)n1 [Gemcitabine, gemcitabine] | 24 | 0.633 | partial inhibition of tumor growth | – | – | – | – | – | – | 20 |
